Results published in PubChem BioAssay (NCI).
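Interpolation was linear, between the two tested concentrations surrounding the appropriate level; five concentrations were tested over 48 hours in 96-well plates. Here, GI50 denotes the concentration required for 50% inhibition of growth. TGI denotes the concentration required for complete inhibition of growth.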

Tests used:
Assay in all cases: inhibition of tumour cell growth, NCI panel, 48 h
786-0 renal = system: 786-0 renal
A498 renal = system: A498 renal
A549 NSCLC = system: A549 NSCLC
ACHN renal = system: ACHN renal
CAKI-1 renal = system: CAKI-1 renal
CCRF-CEM leukemia = system: CCRF-CEM leukemia
COLO 205 colon = system: COLO 205 colon
HCT-116 colon = system: HCT-116 colon
HCT-15 colon = system: HCT-15 colon
HL-60(TB) leukemia = system: HL-60(TB) leukemia
HOP-62 NSCLC = system: HOP-62 NSCLC
HS 578T breast = system: HS 578T breast
HT29 colon = system: HT29 colon
IGROV1 ovarian = system: IGROV1 ovarian
K-562 leukemia = system: K-562 leukemia
KM12 colon = system: KM12 colon
LOX IMVI melanoma = system: LOX IMVI melanoma
M14 melanoma = system: M14 melanoma
MCF7 breast = system: MCF7 breast
MDA-MB-231 breast = system: MDA-MB-231 breast
MDA-MB-435 = system: MDA-MB-435
NCI-H226 lung = system: NCI-H226 lung
NCI-H23 lung = system: NCI-H23 lung
NCI-H460 lung = system: NCI-H460 lung
NCI-H522 lung = system: NCI-H522 lung
NCI/ADR-RES ovarian = system: NCI/ADR-RES ovarian
OVCAR-3 ovarian = system: OVCAR-3 ovarian
OVCAR-4 ovarian = system: OVCAR-4 ovarian
OVCAR-5 ovarian = system: OVCAR-5 ovarian
OVCAR-8 ovarian = system: OVCAR-8 ovarian
PC-3 prostate = system: PC-3 prostate
RPMI-8226 leukemia = system: RPMI-8226 leukemia
RXF 393 renal = system: RXF 393 renal
SF-268 CNS = system: SF-268 CNS
SF-295 CNS = system: SF-295 CNS
SK-MEL-28 melanoma = system: SK-MEL-28 melanoma
SK-OV-3 ovarian = system: SK-OV-3 ovarian
SN12C renal = system: SN12C renal
SNB-19 CNS = system: SNB-19 CNS
SNB-75 CNS = system: SNB-75 CNS
SR leukemia = system: SR leukemia
T-47D breast = system: T-47D breast
TK-10 renal = system: TK-10 renal
U251 CNS = system: U251 CNS
UACC-257 melanoma = system: UACC-257 melanoma
UO-31 renal = system: UO-31 renal
DU-145 prostate = system: DU-145 prostate
EKVX NSCLC = system: EKVX NSCLC
HCC-2998 colon = system: HCC-2998 colon
HOP-92 NSCLC = system: HOP-92 NSCLC
MALME-3M melanoma = system: MALME-3M melanoma
SF-539 CNS = system: SF-539 CNS
SK-MEL-2 melanoma = system: SK-MEL-2 melanoma
SK-MEL-5 melanoma = system: SK-MEL-5 melanoma
SW-620 colon = system: SW-620 colon
UACC-62 melanoma = system: UACC-62 melanoma
BT-549 breast = system: BT-549 breast
MOLT-4 leukemia = system: MOLT-4 leukemia

COc1ccc(-c2ccc(/C=N/n3c(COc4ccccc4Cl)n[nH]c3=S)o2)c([N+](=O)[O-])c1
GI50 (786-0 renal): 28.4 µM | TGI (786-0 renal): > 100 µM | GI50 (A498 renal): 14.4 µM | TGI (A498 renal): 40.6 µM | GI50 (A549 NSCLC): 30.4 µM | TGI (A549 NSCLC): 87.9 µM | GI50 (ACHN renal): 25.6 µM | TGI (ACHN renal): 69.5 µM | GI50 (CAKI-1 renal): 24.6 µM | TGI (CAKI-1 renal): 59.3 µM | GI50 (CCRF-CEM leukemia): 23.1 µM | TGI (CCRF-CEM leukemia): > 100 µM | GI50 (COLO 205 colon): 40.2 µM | TGI (COLO 205 colon): > 100 µM | GI50 (HCT-116 colon): 17.3 µM | TGI (HCT-116 colon): 33.8 µM | GI50 (HCT-15 colon): 26.5 µM | TGI (HCT-15 colon): 89.2 µM | GI50 (HL-60(TB) leukemia): 22.4 µM | TGI (HL-60(TB) leukemia): 56.4 µM | GI50 (HOP-62 NSCLC): 26.7 µM | TGI (HOP-62 NSCLC): 69.3 µM | GI50 (HS 578T breast): 32.5 µM | TGI (HS 578T breast): 98.7 µM | GI50 (HT29 colon): 41.1 µM | TGI (HT29 colon): > 100 µM | GI50 (IGROV1 ovarian): 52.7 µM | TGI (IGROV1 ovarian): > 100 µM | GI50 (K-562 leukemia): 34.1 µM | TGI (K-562 leukemia): > 100 µM | GI50 (KM12 colon): 20.9 µM | TGI (KM12 colon): 49.5 µM | GI50 (LOX IMVI melanoma): 17.6 µM | TGI (LOX IMVI melanoma): 45.8 µM | GI50 (M14 melanoma): 26.6 µM | TGI (M14 melanoma): 79.1 µM | GI50 (MCF7 breast): 18.7 µM | TGI (MCF7 breast): 40.5 µM | GI50 (MDA-MB-231 breast): 46.7 µM | TGI (MDA-MB-231 breast): > 100 µM | GI50 (MDA-MB-435): 20 µM | TGI (MDA-MB-435): 46.6 µM | GI50 (NCI-H226 lung): 20.1 µM | TGI (NCI-H226 lung): 50.9 µM | GI50 (NCI-H23 lung): 18.5 µM | TGI (NCI-H23 lung): 41.8 µM | GI50 (NCI-H460 lung): 23.7 µM | TGI (NCI-H460 lung): 52.7 µM | GI50 (NCI-H522 lung): 49 µM | TGI (NCI-H522 lung): > 100 µM | GI50 (NCI/ADR-RES ovarian): 22.6 µM | TGI (NCI/ADR-RES ovarian): 57.1 µM | GI50 (OVCAR-3 ovarian): 17.7 µM | TGI (OVCAR-3 ovarian): 46.7 µM | GI50 (OVCAR-4 ovarian): 45.4 µM | TGI (OVCAR-4 ovarian): > 100 µM | GI50 (OVCAR-5 ovarian): 44.9 µM | TGI (OVCAR-5 ovarian): > 100 µM | GI50 (OVCAR-8 ovarian): 21.3 µM | TGI (OVCAR-8 ovarian): 55.4 µM | GI50 (PC-3 prostate): 23.6 µM | TGI (PC-3 prostate): 79.4 µM | GI50 (RPMI-8226 leukemia): 24.9 µM | TGI (RPMI-8226 leukemia): 92.9 µM | GI50 (RXF 393 renal): 15.5 µM | TGI (RXF 393 renal): 52.1 µM | GI50 (SF-268 CNS): 32.3 µM | TGI (SF-268 CNS): 91.7 µM | GI50 (SF-295 CNS): 22.6 µM | TGI (SF-295 CNS): 56.5 µM | GI50 (SK-MEL-28 melanoma): 55 µM | TGI (SK-MEL-28 melanoma): > 100 µM | GI50 (SK-OV-3 ovarian): 35.4 µM | TGI (SK-OV-3 ovarian): > 100 µM | GI50 (SN12C renal): 26.4 µM | TGI (SN12C renal): 82.4 µM | GI50 (SNB-19 CNS): 42.2 µM | TGI (SNB-19 CNS): > 100 µM | GI50 (SNB-75 CNS): > 100 µM | TGI (SNB-75 CNS): > 100 µM | GI50 (SR leukemia): 34.8 µM | TGI (SR leukemia): 76.7 µM | GI50 (T-47D breast): 21.8 µM | TGI (T-47D breast): 86.2 µM | GI50 (TK-10 renal): 13.2 µM | TGI (TK-10 renal): 39.5 µM | GI50 (U251 CNS): 22 µM | TGI (U251 CNS): 57.5 µM | GI50 (UACC-257 melanoma): 28.4 µM | TGI (UACC-257 melanoma): 63.5 µM | GI50 (UO-31 renal): 31.7 µM | TGI (UO-31 renal): > 100 µM

COc1cc2c(cc1C)NC(=O)/C2=C\c1ccncc1
TGI (786-0 renal): 18.8 µM | TGI (A549 NSCLC): 66.5 µM | TGI (ACHN renal): 20.2 µM | TGI (CAKI-1 renal): 16.5 µM | TGI (CCRF-CEM leukemia): > 100 µM | TGI (COLO 205 colon): > 100 µM | TGI (DU-145 prostate): 53.6 µM | TGI (EKVX NSCLC): 25.8 µM | TGI (HCC-2998 colon): 30 µM | TGI (HCT-116 colon): 5.09 µM | TGI (HCT-15 colon): 16 µM | TGI (HL-60(TB) leukemia): > 100 µM | TGI (HOP-62 NSCLC): 22.8 µM | TGI (HOP-92 NSCLC): > 100 µM | TGI (HS 578T breast): 8.1 µM | TGI (HT29 colon): > 100 µM | TGI (IGROV1 ovarian): 6.94 µM | TGI (K-562 leukemia): > 100 µM | TGI (KM12 colon): 12.5 µM | TGI (M14 melanoma): 12.9 µM | TGI (MALME-3M melanoma): 32.1 µM | TGI (MCF7 breast): 11.4 µM | TGI (MDA-MB-435): 20 µM | TGI (NCI-H23 lung): 9.28 µM | TGI (NCI-H460 lung): 41.7 µM | TGI (NCI-H522 lung): 9.53 µM | TGI (NCI/ADR-RES ovarian): 10.7 µM | TGI (OVCAR-3 ovarian): 10.3 µM | TGI (OVCAR-4 ovarian): > 100 µM | TGI (OVCAR-5 ovarian): 29.1 µM | TGI (OVCAR-8 ovarian): 5.92 µM | TGI (PC-3 prostate): > 100 µM | TGI (RXF 393 renal): 13.4 µM | TGI (SF-268 CNS): 56.9 µM | TGI (SF-295 CNS): 19.1 µM | TGI (SF-539 CNS): 8.45 µM | TGI (SK-MEL-2 melanoma): 10.1 µM | TGI (SK-MEL-28 melanoma): 84.3 µM | TGI (SK-MEL-5 melanoma): 8.47 µM | TGI (SK-OV-3 ovarian): 13.7 µM | TGI (SN12C renal): 20.9 µM | TGI (SNB-19 CNS): 21.6 µM | TGI (SNB-75 CNS): 33.7 µM | TGI (SR leukemia): 8.04 µM | TGI (SW-620 colon): > 100 µM | TGI (T-47D breast): 16.8 µM | TGI (TK-10 renal): 21.4 µM | TGI (U251 CNS): 18.6 µM | TGI (UACC-257 melanoma): 26.7 µM | TGI (UACC-62 melanoma): 21.1 µM | TGI (UO-31 renal): 18.3 µM

CSc1ncc2c(n1)-c1ccccc1OC2NC(C)(C)C (configuration not stated)
TGI (786-0 renal): > 100 µM | TGI (A498 renal): 7.36 µM | TGI (A549 NSCLC): > 100 µM | TGI (ACHN renal): > 100 µM | TGI (BT-549 breast): > 100 µM | TGI (CAKI-1 renal): > 100 µM | TGI (CCRF-CEM leukemia): > 100 µM | TGI (COLO 205 colon): > 100 µM | TGI (DU-145 prostate): > 100 µM | TGI (EKVX NSCLC): > 100 µM | TGI (HCC-2998 colon): 87 µM | TGI (HCT-116 colon): > 100 µM | TGI (HCT-15 colon): > 100 µM | TGI (HL-60(TB) leukemia): > 100 µM | TGI (HOP-62 NSCLC): > 100 µM | TGI (HOP-92 NSCLC): > 100 µM | TGI (HS 578T breast): > 100 µM | TGI (HT29 colon): > 100 µM | TGI (K-562 leukemia): > 100 µM | TGI (KM12 colon): > 100 µM | TGI (LOX IMVI melanoma): > 100 µM | TGI (M14 melanoma): > 100 µM | TGI (MALME-3M melanoma): > 100 µM | TGI (MCF7 breast): > 100 µM | TGI (MDA-MB-231 breast): > 100 µM | TGI (MDA-MB-435): > 100 µM | TGI (MOLT-4 leukemia): > 100 µM | TGI (NCI-H226 lung): > 100 µM | TGI (NCI-H23 lung): > 100 µM | TGI (NCI-H460 lung): > 100 µM | TGI (NCI-H522 lung): 74.5 µM | TGI (OVCAR-3 ovarian): > 100 µM | TGI (OVCAR-4 ovarian): > 100 µM | TGI (OVCAR-5 ovarian): > 100 µM | TGI (OVCAR-8 ovarian): > 100 µM | TGI (PC-3 prostate): > 100 µM | TGI (RPMI-8226 leukemia): > 100 µM | TGI (RXF 393 renal): > 100 µM | TGI (SF-268 CNS): > 100 µM | TGI (SF-295 CNS): > 100 µM | TGI (SF-539 CNS): > 100 µM | TGI (SK-MEL-28 melanoma): > 100 µM | TGI (SK-OV-3 ovarian): > 100 µM | TGI (SN12C renal): > 100 µM | TGI (SNB-19 CNS): > 100 µM | TGI (SNB-75 CNS): 88.1 µM | TGI (SR leukemia): > 100 µM | TGI (SW-620 colon): > 100 µM | TGI (T-47D breast): > 100 µM | TGI (TK-10 renal): > 100 µM | TGI (U251 CNS): > 100 µM | TGI (UACC-257 melanoma): > 100 µM | TGI (UACC-62 melanoma): > 100 µM | TGI (UO-31 renal): > 100 µM
